These results are taken from paper PMC8583042, “New Hybrid Compounds Combining Fragments of Usnic Acid and Thioether Are Inhibitors of Human Enzymes TDP1, TDP2 and PARP1” (International Journal of Molecular Sciences, 2021).

The target in one series is T1, TDP1 (Homo sapiens, UniProt Q9NUW8).
T1 construct: made in house; host or cells: E. coli
Briefly: Steady-state kinetics of the TDP1 reaction (Vmax, KM, type of inhibition). Type of series: biochemical. More on the design: Vmax: unit not given here. The source says:
The reversible enzyme inhibitors were classified as competitive, uncompetitive, non-competitive, or mixed, depending on the binding of the enzyme, to the enzyme–substrate complex (ES) or to the enzyme–substrate–inhibitor triple complex (ESI). The enzyme could bind the inhibitor at the different steps of catalysis (before or after the substrate) and at the substrate-binding site or another site. The effect of the inhibitor on enzymatic activity can be analyzed using graphical representations of the Michaelis–Menten equation. […] TDP1 has a catalytic pocket with a narrow positively charged cleft where it binds DNA and with a relatively large cleft that contains a mixed charge distribution for the TOP1 fragment binding. It is known that TDP1 hydrolyzes the DNA–TOP1 adducts via two coordinated nucleophilic attacks of two His residues (His263 and His493) with the covalent intermediate complex formation. The enzyme reaction catalyzed by TDP1 could be inhibited in two steps: the first one is the inhibition of the TDP1 binding to the DNA substrate (the nucleophilic attack of His263). The second step is releasing TDP1 from the transition complex (nucleophilic attack by a water molecule activated by His493). Inhibition of the second step prevents the release of the DNA 3′-phosphate product from the DNA–TDP1 complex. Spinocerebellar ataxia with axonal neuropathy (SCAN1) is a neurological disease that is caused by a TDP1 His493Arg mutation. This mutation prevents the second step of hydrolysis of the intermediate complex and the enzyme remains covalently bound to DNA [47]. The uncompetitive inhibitors also prevent the second step of the reaction, stabilizing the enzyme–DNA covalent complex, which can lead to the accumulation of the single-strand breaks in the cell.
The biosensor (5′-[FAM] AAC GTC AGGGTC TTC C [BHQ]-3′) was synthesized in the Laboratory of Nucleic Acid Chemistry at the Institute of Chemical Biology and Fundamental Medicine (Novosibirsk, Russia) and was used for TDP1 enzyme activity real-time fluorescence detection. The reaction mixture (200 μL) contained a TDP1 reaction buffer (50 mM Tris-HCl, pH 8.0, 50 mM NaCl, and 7 mM β-mercaptoethanol), 50 nM oligonucleotide, varied concentrations of the tested compounds, and purified TDP1 in a final concentration 1.5 nM. The reaction mixtures were incubated at a constant temperature of 26 °C in a POLARstar OPTIMA fluorimeter (BMG LABTECH, GmbH, Ortenberg, Germany). Fluorescence intensity was measured (Ex485/Em520 nm) every 1 min for 10 min. The average values of the half maximal inhibitory concentration (IC50) were determined using an eleven-point concentration response curve and calculated using MARS Data Analysis 2.0 (BMG LABTECH). The 50% inhibitory concentration (IC50) was defined as the concentration of the compound that inhibited 50% of the enzyme activity when compared to the untreated controls. At least three independent experiments were carried out to obtain the IC50 values. To determine the kinetic parameters of the TDP1 enzymatic reaction, the apparent maximum rate of enzymatic reaction (Vmax), Michaelis constant (KM), possible inhibition mechanism, and steady-state kinetic experiments were carried out at 5 fixed concentrations of the substrate, with variation in the inhibitor concentrations. The standard reaction mixtures (200 μL) contained reaction buffer components; 50 nM, 100 nM, 200 nM, 500 nM, or 1000 nM substrate; an inhibitor; and 1.5 nM recombinant human TDP1. The initial kinetic curves were obtained in three independent experiments and statistically processed in OriginPro 8.6.0 (OriginLab, Northampton, MA, USA).
Table S25 Dependence of TDP1 reaction values V max and K M on the concentration of inhibitors
[7g], mM V max Standard Error K M Standard Error
[7h], mM V max Standard Error K M Standard Error
[10a], mM V max Standard Error K M Standard Error
[10b], mM V max Standard Error K M Standard Error

Series [1] in a line: Colorimetric cytotoxicity test, HEK293FT. To be noted: human, HEK293FT cells, intrinsic cytotoxicity. The class given is cell-based. The text has this: The low intrinsic cytotoxicity of the additional drug component in the clinically used anticancer cocktails with traditional drugs is very important for treatment. This approach in chemotherapy can reduce the potential resulting toxic load on the body in the case of a combined action of these inhibitors on the activity of several targets. […] The effects of the tested compounds on cell survival are shown on Figure 4 and the CC50 values for three cell lines are shown in Table 1. The intrinsic cytotoxicity of a number of the studied compounds is quite high, namely, they have close IC50 values against the TDP1 and CC50 values on one or several studied cell lines. Most of the compounds generally were more toxic for the HEK293FT and HeLa cell lines than for the HEK293A cell line (Table 1 and Figure 4). The cytotoxicity of the three leader compounds, 7g, 10a, and 7h, was quite high. […] Compound 10b was one of the least toxic among the ten tested compounds.
Cytotoxicity of the compounds was examined against human cell lines HEK293A (human embryonic kidney)—WT, TDP1 deficient (Tdp1-/-), PARP1 deficient (PARP1-/-), and HeLa (cervical cancer) using an EZ4U colorimetric test (Biomedica, Vienna, Austria). The HEK293A cell line was obtained from Thermo Fisher Scientific (Waltham, MA, USA), and the HeLa cell line was obtained from the Russian Cell Culture Collection (RCCC) Institute of Cytology RAS, St. Petersburg, Russia. The cells were grown in DMEM/F12 medium (Gibco, Thermo Fisher Scientific, Waltham, MA, USA), with 1x GlutaMAX (Gibco, Thermo Fisher Scientific, Waltham, MA, USA), 50 IU/mL penicillin, 50 μg/mL streptomycin (MP Biomedicals), and in the presence of 10% fetal bovine serum (Biolot, Saint-Petersburg, Russia) in a 5% CO2 atmosphere. Cells were grown in the presence of 1% DMSO in the control wells. After the formation of a 30–50% monolayer, the tested compounds were added to the medium, and the cell culture was monitored for 3 days. The values were normalized to their own control in each case. At least three independent experiments were carried out. The 50% cytotoxic concentration (CC50) was defined as the compound concentration that reduced the cell viability by 50% when compared to the untreated controls. The compound concentration that caused 50% cell growth inhibition was determined using OriginPro 8.6.0 software (OriginLab, Northampton, MA, USA). The measurements were carried out in three independent experiments.

Broadly, the CC50 is the concentration at which the toxic effect on the cells reaches its halfway point.

T1 sequence (Q9NUW8 whole entry): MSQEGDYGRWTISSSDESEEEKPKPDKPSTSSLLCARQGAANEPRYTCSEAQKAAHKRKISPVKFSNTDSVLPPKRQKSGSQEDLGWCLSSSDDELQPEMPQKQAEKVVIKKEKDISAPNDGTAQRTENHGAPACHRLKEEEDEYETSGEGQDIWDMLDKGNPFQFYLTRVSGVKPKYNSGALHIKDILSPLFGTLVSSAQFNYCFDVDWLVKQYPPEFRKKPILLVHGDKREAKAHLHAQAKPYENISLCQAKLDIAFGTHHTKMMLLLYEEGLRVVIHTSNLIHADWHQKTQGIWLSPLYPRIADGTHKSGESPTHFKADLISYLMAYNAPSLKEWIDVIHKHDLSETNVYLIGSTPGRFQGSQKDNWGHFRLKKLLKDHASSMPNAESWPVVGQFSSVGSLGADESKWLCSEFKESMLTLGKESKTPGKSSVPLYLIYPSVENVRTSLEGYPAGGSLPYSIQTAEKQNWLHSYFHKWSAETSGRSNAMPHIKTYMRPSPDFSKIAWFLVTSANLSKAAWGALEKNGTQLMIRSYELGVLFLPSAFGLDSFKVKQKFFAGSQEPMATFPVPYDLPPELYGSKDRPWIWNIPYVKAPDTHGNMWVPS

As to `CC(=O)C1=C(O)C=C2Oc3c(C(=O)C[S+]([O-])c4nc5ccccc5s4)c(O)c(C)c(O)c3[C@@]2(C)C1=O` (stereo partly drawn) [10a, (2R)-4-acetyl-10-[2-(1,3-benzothiazole-2-sulfinyl)acetyl]-5,11,13-trihydroxy-2,12-dimethyl-8-oxatricyclo[7.4.0.0^2,7]trideca-1(13),4,6,9,11-pentaen-3-one], the Vmax at TDP1 (inhibitor 0.8 mM (so in the source)) is given as 27.8; on TDP1 (inhibitor 1.6 mM (so in the source)), 26.5; at TDP1 (inhibitor 3.2 mM (so in the source)), 25.1; on TDP1 (inhibitor 6.4 mM (so in the source)), 21.3. Also, on TDP1 (steady-state conditions, fall in both Vmax and KM with increasing inhibitor), the “Type of inhibition of TDP1 enzyme reaction” value is on record as “uncompetitive”. This compound also showed a CC50 at 3 days in series [1] of 15 ± 2 µM.
